Values after ≈ are worked out from the molar mass of the structure shown.
Columns and labels:
[1] = Standard solubility studies; type: physicochemical
Procedure: Standard solubility studies were conducted with granaticin B. In aqueous solution, 4.0 mg/ml of granaticin B is soluble. In alcohol, >188 mg/ml of granaticin B is soluble. In methanol, >252 mg/ml of granaticin B is soluble.

[2] = test system: primary patient leukemia samples; test: Inhibition of cellular proliferation, all primary patient leukemia samples; type: cell-based, human
Procedure: FIGS. 16A-16B. Granaticin A and Granaticin B inhibit multiple tumor types: The indicated cell lines and primary patient samples were tested against the compounds listed in standard cytotoxicity assays (12 point dose response using Alamar blue reduction as an indicator of cell viability). Assays were done in triplicate and IC50 determinations were run in 12-point serial dilutions from […] to 5 nM. […] These include ras and EGFR gatekeeper mutation containing cell lines in addition to p53 mutant cell lines and other known chemotherapy resistant cell lines. Specifically, this included multi-drug resistance phenotype (MDR-overexpressing) cell lines from multiple hematologic and solid tumor cell lines. Table 1 highlights a series of primary patient leukemia samples-both acute and chronic and treatment naïve and refractory tested against granaticins A and B and Derivatives 1 and 2 (see Examples).
Table 1 highlights a series of primary patient leukemia samples-both acute and chronic and treatment naïve and refractory and the effect of granaticin A, granaticin B, derivative 1, and derivative 2 to inhibit cellular proliferation. […]

Compound CC1OC2CC(O[C@H]3CC[C@H](O)[C@H](C)O3)C1(O)c1c(O)c3c(c(O)c12)C(=O)C1=C(C3=O)[C@H](C)O[C@H]2CC(=O)O[C@@H]12 (some centres unmarked) [Granaticin B, granaticin B] has a solubility ([1]; organic solvent or mixture, in alcohol) of over 188 mg/mL, a solubility ([1]; organic solvent or mixture, in methanol) of over 252 mg/mL and a solubility ([1]; water, in aqueous solution) of 4 mg/mL (≈ 7.16 mM). For the same compound, the “activity relative to granaticin A” value ([2]; against all the samples tested) was “approximately one log” and the “range of inhibition of cellular proliferation” value ([2]; all the samples tested) was “low nanomolar range”.
